Data published in US5554613A, “Heterocyclic derivatives” (Zeneca Limited, priority 1992, dated 1996).

Legend:
[1] = test system: de novo hepatic cholesterol synthesis; assay: Acute rat cholesterol synthesis assay (de novo hepatic cholesterol synthesis from 14C-acetate); format: in vivo; conditions: female rats, oral gavage, ip or iv dosing, [2-14C]-acetate ip after 1 hour
Protocol: (b) Ache rat cholesterol synthesis assay.
This is an acute in vivo test in the rat to measure de novo hepatic cholesterol synthesis from exogenously administered ^14 C-acetate.
Female rats (35-55 g) are housed in reverse lighting conditions (red light from 0200h-1400h) for a period of about 2 weeks prior to test. Animals are allowed free access to chow and drinking water throughout this period. At test, animals should weigh 125-150 g.
Test compounds may be administered by oral gavage, dissolved or suspended in 0.5% polysorbate, or by ip or iv dosing. Control animals receive vehicle alone. After 1 hour the rats are injected ip with 25 μCi [2-^14 C]-acetate (NEN DUPONT. specific activity, 45-60 mCi/mmol NEC-085H, or AMERSHAM specific activity, 50-60mCi/mmol CFA 14) in a volume of 0.25 ml saline (100 μCi/ml). After a further hour, rats are terminally anaesthetised with halothane and a blood sample obtained from the abdominal vena cava.
1 ml of plasma is lyophilised and then saponified in 2 ml ethanolic KOH (1 part 33% KOH, 9 parts ethanol) at 75° C. for 2 hours. After addition of an equal quantity of water, non-saponifiable lipids are extracted with two 5 ml volumes of hexane. The hexane extracts are evaporated to dryness and the residues dissolved in ethanol to determine cholesterol specific radioactivity. ED50 values can be determined in the standard way.

[2] = molecular target: T1, Squalene synthase (Rattus norvegicus, UniProt Q02769); assay: Inhibition of Squalene synthase (formation of squalene from tritiated farnesyl pyrophosphate, rat liver microsomal protein); format: biochemical; conditions: at a concentration of 2.5 μM; rat liver microsomes
T1 construct: rat liver microsomal protein; from tissue; host or cells: rat liver microsomes
T1 sequence (Q02769 1-416): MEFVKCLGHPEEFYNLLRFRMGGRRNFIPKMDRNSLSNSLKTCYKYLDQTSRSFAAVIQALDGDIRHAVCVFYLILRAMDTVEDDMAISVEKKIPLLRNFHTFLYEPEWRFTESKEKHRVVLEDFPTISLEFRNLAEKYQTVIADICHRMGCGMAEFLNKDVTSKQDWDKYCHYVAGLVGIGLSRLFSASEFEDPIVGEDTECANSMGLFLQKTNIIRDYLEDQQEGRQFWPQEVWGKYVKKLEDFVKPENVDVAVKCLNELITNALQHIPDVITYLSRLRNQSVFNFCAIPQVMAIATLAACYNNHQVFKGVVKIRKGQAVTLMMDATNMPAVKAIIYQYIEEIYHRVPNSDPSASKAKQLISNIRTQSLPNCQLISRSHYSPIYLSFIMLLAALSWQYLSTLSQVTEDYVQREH
Protocol: (a) Inhibition of Squalene synthase
In this test, the ability of a compound to prevent the formation of squalene from a radioactive substrate (tritiated farnesyl pyrophosphate) is assessed.
The test compound is incubated at a concentration of […] in 200 μl of a buffered solution containing potassium phosphate (50 mM), MgCl2 (4.95 mM), KF (9.9 mM), NADPH (0.9 mM) and rat liver microsomal protein (20 μg). Rat liver microsomes are prepared by the method described in published European Patent Application No. 324,421 and stored in liquid nitrogen prior to assay. Assay vials are kept at 37° C. throughout the incubation.
The reaction is started with the addition of the substrate (1-[^3 H]-farnesyl pyrophosphate), final concentration 20 μM, and stopped after 15 minutes reaction time with the addition of 50 μl of 4% KOH. The reaction products are separated from unreacted substrate after application to a C-18 octadecyl 1 ccBond column (Analytichem Int product No. 617101). An aqueous fraction is eluted with 250 μl of 0.1M KOH. Squalene is then eluted with 1.0 ml 10% ethylacetate in hexane and radioactivity determined. The difference in radioactivity in the presence and absence of the test compound is used to determine the level of inhibition. […] The IC50 can then be determined from a plot of percentage inhibition against concentration of test compound.

| Structure (SMILES) | ED50 [1] [mg/kg] | inhibition at 2.5 µM [2] [%] |
| --- | --- | --- |
| OC1(c2ccc(-c3ccccn3)cc2)CN2CCC1CC2 (stereo not drawn) [Example 2, 3-[4-(pyrid-2-yl)phenyl]quinuclidin-3-ol] | 14 | – |
| OC1(c2ccc(-c3cncnc3)cc2)CN2CCC1CC2 (stereo not drawn) [Example 4, 3-[4-(pyrimidin-5-yl)phenyl]quinuclidin-3-ol] | 4.5 | ~54 |
